Test results published in patent US9068970B2, “Efficient and effective supplement screening for the development of chemically defined media in cell culture” (Abbvie Inc., priority 2010, dated 2015).

Legend:
Type in all cases: cell-based
[1] = tested on: recombinant IgG producing Chinese Hamster Ovary cell line (CHO cell line #1); assay: 24-well plate media supplement screening: peak viable cell density (CellTiter 96 AQueous); details: HTS experiments; CDM #1, relative to unsupplemented control
Description: (§1) 24-well plates were utilized at a working volume of 1.5 mL per well to serve as the platform for media supplement screening. An in-house, base chemically defined media (CDM #1) was used as the basal media for the purposes of the experiments. A recombinant IgG producing Chinese Hamster Ovary cell line (CHO cell line #1) was used for the media supplement screening phase of the experiments.
All 24-well plate screening experiments were designed using JMP7 commercially available statistics software (Cary, N.C.) using custom experimental options. Six individual media supplement screening experiments were performed to test over a hundred different supplements in statistically designed experiments and in a serial fashion. All screening experiments were performed at […] cultured at 210 rpm on a shaker table in a 5% humidified CO2 incubator. Gas permeable, rayon film plate covers (VWR International, Radnor, Pa., Catalog #60941-086) were employed as necessary to provide a sterile barrier between the well plates, the plastic plate cover, and the culture atmosphere. Supplement solutions were manually pipetted into the respective plate wells using concentrated, sterile stock solutions. The comprehensive list of media supplements evaluated for cell culture process improvement is shown below in Table 2:
(§2) Two cell culture performance indicators were measured in the high-throughput screening experiments: peak viable cell density and harvest titer. Time point samples were withdrawn from each of the respective plate wells on Days 6, 7, and 8 post inoculation and measured for their respective viable cell densities spectrophotometrically via the CellTiter 96 AQueous Solution Cell Proliferation Assay Kits™ (Promega, Madison, Wis.). Harvest Titer measurements were conducted via high performance liquid chromatography (HPLC) with a Poros A™ affinity column (Applied Biosystems, Foster City, Calif.). All experimental wells supplemented with a particular combination of media compounds were compared to an unsupplemented control, with the results expressed as relative values relative to the control.
(§3) Two cell culture performance indicators were measured in the high-throughput screening experiments as well as media verification experiments; peak viable cell density (VCD) and harvest titer. […] A few days after the last cell count measurement sample the plates were centrifuged and the supernatant was collected and stored at −80° C. for future analysis. Harvest titer measurements were conducted via high performance liquid chromatography (HPLC) with a Poros A™ affinity column (Applied Biosystems, Foster City, Calif.). All experimental wells supplemented with a particular combination of media compounds were compared to an unsupplemented control, with the results expressed as values relative to the control. For the media verification experiments in larger-scale shaker and spinner flasks, viable cell density and viability were measured via Cedex automated cell counters (Roche Applied Science, Indianapolis, Ind.). Harvest titer measurements were similarly measured via HPLC.
(§4) Standard Analysis of Variance (ANOVA) was used to measure the significance of individual supplements and their respective interactions towards the resulting cell culture technique performance. Individual analyses were conducted on both peak viable cell density and harvest titer for each of the respective screening experiments. Three different levels of each media supplement were used in these experiments: unsupplemented (Level 1), lightly supplemented (Level 2), and heavily supplemented (Level 3). […] The optimization subroutine intrinsic to the statistics software was used to analyze the screening dataset determine the identity of a high performance media blend. It is important to note that the selection method is a mathematical exercise which can lead to multiple blends identified as having the highest performance parameters, and the results are highly dependent on the initial first guess.

[2] = tested on: recombinant IgG producing Chinese Hamster Ovary cell line (CHO cell line #1); assay: 24-well plate media supplement screening: harvest titer (HPLC, Poros A affinity column); details: HTS experiments; CDM #1, relative to unsupplemented control
Description: as §1
All 24-well plate screening experiments were designed using JMP7 commercially available statistics software (Cary, N.C.) using custom experimental options. Six individual media supplement screening experiments were performed to test over a hundred different supplements in statistically designed experiments and in a serial fashion. […] Supplement solutions were manually pipetted into the respective plate wells using concentrated, sterile stock solutions. The comprehensive list of media supplements evaluated for cell culture process improvement is shown below in Table 2:
as §2, §3, §4
The aforementioned supplements were evaluated for improvements in cell culture technique performance.

[3] = tested on: recombinant IgG producing Chinese Hamster Ovary cell line (CHO cell line #1); assay: Supplement screening: process performance (peak VCD and/or harvest titer) by inspectional/statistical analysis; details: univariate analysis of varying supplement concentrations
Description: as §4, with “guess. Three particular high performance blends were identified for further evaluation: […] The supplements whose relative concentrations supported a distinct pattern of either increasing or decreasing process performance were categorized into the clustered classification. […] These supplements were either compounds or groups of similar compounds such as polyamines, essential amino acids, and vitamins.” for “guess.”

[4] = tested on: recombinant IgG producing Chinese Hamster Ovary cell line (CHO cell line #1); assay: JMP7 statistical identification of high performance media supplementation from a 15-supplement screening experiment; details: for Concentration Target (Range) for Increase of Harvest Titer / Concentration Target (Range) for Increase of Peak VCD / Concentration Target (Range) for Increase of Peak VCD and Harvest Titer: predicted amount for addition into the unsupplemented control media
Description: as §4
Fifteen of these supplements, or groups of supplements, were screened in a separate statistically designed experiment for the final determination of high performance media blends for the maximization of peak VCD, harvest titer, and both of these variables simultaneously.
The JMP7 statistical software program was further used to identify the high performance media supplementation for maximizing peak VCD, harvest titer, and both simultaneously.

[5] = range given, variability in culture volumes

Molecule	Effect on Peak VCD [1]	Effect on Harvest Titer [2]	Process Performance Pattern [3]	Concentration Target (Range) for Increase of Harvest Titer [4]	Concentration Target (Range) for Increase of Peak VCD [4]	Concentration Target (Range) for Increase of Peak VCD and Harvest Titer [4]	Concentration Range for Increase of Harvest Titer [4, 5]	Concentration Range for Increase of Peak VCD [4, 5]	Concentration Range for Increase of Peak VCD and Harvest Titer [4, 5]
[Cl-].[Cl-].[Zn+2] [Zinc chloride]	No change	Increase	Clustered	+5.46 × 10^−3 g/L	+2.05 × 10^−3 g/L	+5.12 × 10^−3 g/L	(4.85 × 10^−3-6.22 × 10^−3) g/L	(1.82 × 10^−3-2.33 × 10^−3) g/L	(4.54 × 10^−3-5.83 × 10^−3) g/L
OC1C(O)C(O)C(O)C(O)C1O (centres unmarked) [i-inositol]	No change	No change	Wide dispersal	+0.05 (0.05-0.06) g/L	+0.11 (0.09-0.12) g/L	+0.19 (0.17-0.22) g/L			
OC[C@H]1O[C@@H]2O[C@H]3[C@H](O)[C@@H](O)[C@@H](O[C@H]4[C@H](O)[C@@H](O)[C@@H](O[C@H]5[C@H](O)[C@@H](O)[C@@H](O[C@H]6[C@H](O)[C@@H](O)[C@@H](O[C@H]7[C@H](O)[C@@H](O)[C@@H](O[C@H]1[C@H](O)[C@H]2O)O[C@@H]7CO)O[C@@H]6CO)O[C@@H]5CO)O[C@@H]4CO)O[C@@H]3CO [α-cyclodextrin]	Increase	Increase	Wide dispersal	0 g/L	+0.16 (0.14-0.18) g/L	0 g/L			
OC[C@H]1O[C@@H]2O[C@H]3[C@H](O)[C@@H](O)[C@@H](O[C@H]4[C@H](O)[C@@H](O)[C@@H](O[C@H]5[C@H](O)[C@@H](O)[C@@H](O[C@H]6[C@H](O)[C@@H](O)[C@@H](O[C@H]7[C@H](O)[C@@H](O)[C@@H](O[C@H]8[C@H](O)[C@@H](O)[C@@H](O[C@H]1[C@H](O)[C@H]2O)O[C@@H]8CO)O[C@@H]7CO)O[C@@H]6CO)O[C@@H]5CO)O[C@@H]4CO)O[C@@H]3CO [β-cyclodextrin]	Increase	Increase	Wide dispersal	0 g/L	+0.16 (0.14-0.18) g/L	0 g/L			
Calcium pantothenate	Increase	No change	Wide dispersal	0 g/L	+0.15 (0.13-0.17) g/L	0 g/L			
Manganese chloride	Increase	No change	Wide dispersal	+1.07 × 10^−4 g/L	+6.67 × 10^−5^ g/L	0 g/L	(9.46 × 10^−5-1.21 × 10^−4) g/L	(5.91 × 10^−5-7.59 × 10^−5) g/L	
